According to a melting point compilation (Tetko et al.; mined from patent text by program, amines drawn as free bases though some values may be those of a salt):

Work on `CCOC(=O)CN1C(=O)C(N2C(=O)c3ccccc3C2=O)CCCc2ccccc21` (stereo not given) yielded a melting point of 79 to 81 °C.
Molecule `COc1ccccc1C(=CC#N)c1ccccc1OC` has a melting point of 99 to 100 °C.
`Cc1cc(C#N)ccc1C1(CC2c3ccccc3Oc3ccccc32)NC(=O)NC1=O` (stereo not given) showed a melting point of 148 to 152 °C.
For `COC(=O)C(O)C(NCc1ccccc1)c1ccccc1` (stereo not given), the melting point was 99 °C.
`CN(C)CCCN1N=C2C(=Cc3ccccc3)CSCC2C1c1ccccc1` (stereo not given) gave a melting point of 83 to 85 °C.
With `COC(=O)CC1=C(C)Cc2ccc(SC)cc21` the melting point was 200 to 210 °C.
In the case of `CCCCc1nn(-c2ccccc2Cl)c(=O)n1Cc1ccc(-c2ccccc2S(N)(=O)=O)cc1`, the melting point is reported as 140 to 142 °C.
Work on `COc1ccc(-c2nc(CCOc3ccc(CN(O)C(N)=O)cc3)c(C)o2)cc1` yielded a melting point of 100 to 101 °C.
Work on `CC(C)C(C)(C#N)N1C(=O)c2ccc3ccsc3c2C1=O` (stereo not given) yielded a melting point of 99 to 107 °C.
`CCOC(=O)CC(=O)Nc1nc(-c2ccc(OC)cc2)c(-c2cccnc2)s1` showed a melting point of 202 to 203 °C.
Molecule `CC(C)(C(=O)c1ccc(SCCCCS)cc1)N1CCOCC1` has a melting point of 98 °C.
For `O=Cn1cc(Cl)c(-c2ccccc2C(F)(F)F)c1`, the melting point was 75 to 78 °C.
`COc1ccc(CC(=O)c2ccc(F)cc2)cc1` showed a melting point of 107 to 109 °C.
`C[Si](C)(C)N1CCCCCN([Si](C)(C)C)CCN([Si](C)(C)C)CC1` gave a melting point of 78 to 86.5 °C.
Molecule `COCc1ncccc1CN(CCn1ccc2oc(C)cc2c1=O)Cc1ccc2c(c1)NC(=O)C(C)(C)C(=O)N2CC1CC1` has a melting point of 189 to 191 °C.
`COc1c(C(c2ccccc2)c2ccccc2)ccc2ccccc12` gave a melting point of 119 to 121 °C.
For `CN(C)C(C)(C)c1ccc(-c2nc(Nc3ccc(-n4cncn4)cc3)ncc2C#N)cc1`, the melting point was 235 to 237 °C.
Work on `Cn1cc(Oc2ccc(Cl)c(Cl)c2)c(=O)c(-c2cccc(C(F)(F)F)c2)c1` yielded a melting point of 127 to 129 °C.
`O=C(O)Cc1ccc(NC(=O)C(Cn2ccnc2)NS(=O)(=O)c2ccc(Br)cc2)cc1` (racemic) gave a melting point of 131 to 140 °C.
Work on `CNC(=N[N+](=O)[O-])N(Cc1cnc(Cl)s1)C(=O)N(C)C` yielded a melting point of 140 °C.
Work on `COc1ccc2c(c1)N(CC(=O)O)C(=O)C(N=[N+]=[N-])CC2` (stereo not given) yielded a melting point of 145 to 147 °C.
`Cc1c(Cc2ccc(N3C(=O)C=CC3=O)c(C)c2C)ccc(N2C(=O)C=CC2=O)c1C` showed a melting point of 210 to 220 °C.
With `OCC12CCCN(CC1)C2` (stereo not given) the melting point was 44 to 47 °C.
Molecule `CC(=O)N(O)Cc1ccc(C(O)C#Cc2ccsc2)cc1` (stereo not given) has a melting point of 126 to 129 °C.
Molecule `C[C@H](NC(=O)c1c[nH]c2ncc(-c3ccc(C(=O)NC4CCOCC4)s3)nc12)C(C)(C)C` has a melting point of 333 to 334 °C.
In the case of `Cc1ccc(NC(=O)c2ccsc2)cc1-c1nc(N(C)C)nc2c1CNC(=O)N2c1c(F)cccc1F`, the melting point is reported as 214 to 215 °C.
`Cc1cc(C)cc(OCC(=O)c2ccccc2)c1` gave a melting point of 104 to 105 °C.
In the case of `COc1ccc(F)cc1N1CCN([C@H]2CC[C@@H](c3c[nH]c4ccc(F)cc43)CC2)CC1`, the melting point is reported as 152 to 153 °C.
`c1ccc2cc(Cc3nc4cc(CCC5OCCO5)ccc4o3)ccc2c1` gave a melting point of 85 to 86 °C.
Work on `COc1cccc(Oc2ncccc2C=O)c1` yielded a melting point of 76 to 78 °C.
`COc1cc(OC)c2c(=O)[nH]c(-c3ccc(OCCO)c(-c4ccccc4)n3)nc2c1` gave a melting point of 240 to 242 °C.
For `O=C1NCNC12CCCc1ccccc12` (stereo not given), the melting point was 181 to 183 °C.
In the case of `COc1cc(OC)nc(Sc2ccnc3cc(Cl)ccc23)n1`, the melting point is reported as 93 to 94.5 °C.
`CC(C)Cc1nc2ccc(C(c3cccc(Cl)c3)n3ccnc3)cc2[nH]c1=O` (stereo not given) gave a melting point of 215 °C.
Work on `CN(CCCCNC(=NCCSCc1csc(NC(=N)N)n1)NC#N)CCN(Cc1ccc(F)cc1)c1ccccn1` yielded a melting point of 137 °C.
With `CC1(C)CC(SCc2c(Cl)nn(C(F)F)c2C(F)(F)F)=NO1` the melting point was 89 to 90 °C.
For `N#Cc1ccc2nc(N[C@@H]3CCc4ccccc43)ccc2c1`, the melting point was 164 °C.
For `Cc1c(OCCCCSCc2ccncc2)ccnc1CNc1cnc2ccccc2c1`, the melting point was 128 to 129 °C.
With `O=[N+]([O-])c1ccccc1NCCCCCCCCCCCCNc1ccccc1[N+](=O)[O-]` the melting point was 79 to 80 °C.
`Cc1nc(C(CC(C)C)Nc2c(C#N)cnn3cccc23)sc1C` (stereo not given) gave a melting point of 138 °C.
Work on `CC(=O)Oc1ccc(-c2ccc(F)cc2)cc1C(=O)O` yielded a melting point of 134 to 137 °C.
For `Nc1cc(/C=C/c2nc3ccccc3s2)ccc1O`, the melting point was 192 to 193 °C.
`CCCCCCCCCC(=O)Oc1ccc(N)cc1OC(=O)CCCCCCCCC` gave a melting point of 44 to 46 °C.
Work on `COc1ccc(N2CCN(c3c(C)c(C)c4c(c3C)CC(C)O4)CC2)cc1C` (stereo not given) yielded a melting point of 141 to 142 °C.
`CC(C)(C)N(Cc1ccccc1)CC(O)c1ccc(OCc2ccccc2)c(N)c1` (stereo not given) gave a melting point of 68 to 69 °C.
`c1nc(NCCN2CCOCC2)c2sc3nc(N4CCCC4)c4c(c3c2n1)CCOC4` gave a melting point of 189 to 191 °C.
Molecule `COCOc1ccc(-c2ncc3ncc(Cl)cc3n2)cc1` has a melting point greater than 268 °C.
In the case of `CCCOC(=O)c1c(CBr)nc2cc(OC)c(OC)cc2c1-c1ccc(OC)c(OC)c1`, the melting point is reported as 144 to 145 °C.
Molecule `O=C(O)CCCc1ccc(S(=O)(=O)Nc2ccc(Cl)cc2)cn1` has a melting point of 150 to 152 °C.
Work on `CCOC=C1C(=S)c2cc(C)ccc2OC1c1ccccc1` (stereo not given) yielded a melting point of 140 to 142 °C.
